{"source": "patent US20040115209A1", "about": "“Compound targeted for specific cells with reduced systemic toxicity” (priority 2000, published 2004)", "key": {"[1]": {"system": "KB cells", "assay": "MTT cytotoxicity of Doxorubicin-mAb α-IR3, KB cells", "assay_type": "cell-based", "conditions": "Homo sapiens, 72 h, 3 days, n = 3", "method": "(§1) Competition of Doxorubicin-α-IR3 cytotoxicity was done by adding a 10-fold molar excess of α-IR3 antibody. The survival profile of the cells was measured with the MTT assay 72 hr after plating."}, "[2]": {"system": "KB-V cells", "assay": "MTT cytotoxicity of Doxorubicin-mAb α-IR3, KB-V cells (p-glycoprotein resistant)", "assay_type": "cell-based, human", "method": "as §1"}, "[3]": {"system": "NIH 3T3 cells", "conditions": "mouse fibroblasts", "method": "as §1"}, "[4]": {"system": "NWT-b3 cells", "conditions": "mouse, 72 h", "method": "as §1"}, "[5]": {"system": "B104 cells", "assay_type": "in vivo", "conditions": "˜3.5 nM", "experimental": "Nude mice (seven weeks old, female) were used to test the effect of paclitaxel or conjugates in tumor progression. Single cell suspensions of B104 cells (10^5/mouse) were injected subcutaneously in the left flank near the rib cage. Tumor growth was monitored daily. […] Mice were then randomized and treatments were initiated in four groups (n=5 in each group). […] All treatments were done by a total of five injections every two days (for a total of ten days). All injections were done IP on the right side to prevent direct contact of the agents to the tumor growing subcutaneously, and to assure that systemic circulation of the drugs was achieved. Measurements of tumor volume were taken using calipers, every day post treatment for a total of 25 days.\nThe timeline was: day −14 injection of tumors subcutaneously, days −10, −8, −6, −4, −2 injection of drugs or controls, days 0-25 measurement of tumor growth daily.\nStatistical significance of differences in tumor growth among the different treatment groups was determined by the student t test using SYSTAT 7.0 software. P value is significant when it is <0.05."}, "[6]": {"system": "B104 cells", "assay": "Kinetics of paclitaxel cytotoxicity: single bolus versus constant exposure (MTT)", "assay_type": "cell-based, rat", "experimental": "It is likely that a single bolus of paclitaxel•antibody conjugate would be delivered because affected cells would not synthesize additional target receptor. Therefore we tested whether a single bolus of paclitaxel would be an effective cytotoxic agent. Cells were exposed to the indicated concentration of paclitaxel for 30 minutes at 4° C. Then, cells were plated in a 96-well plate (Falcon); this group represents treatment with paclitaxel present in a constant manner. The remaining cells were washed free of excess paclitaxel prior to plating; this group represents a single exposure to paclitaxel. […] Optical density readings of MTT were done in an EIA Plate Reader model 2550 (Bio-Rad) at 595 nm."}, "[7]": {"system": "B104 cells", "assay": "MTT cytotoxicity of paclitaxel•MC192, B104 cells", "assay_type": "cell-based, rat", "conditions": "addition of 40 nM MC192", "method": "(§2) The survival profile of the cells was measured with the MTT assay 72 hr after plating."}, "[8]": {"system": "NIH-3T3 cells", "assay": "MTT cytotoxicity of paclitaxel•MC192, cells that do not express p75", "assay_type": "cell-based, mouse", "method": "as §2"}, "[9]": {"system": "4-3.6 cells", "assay": "In vitro survival assay in serum free media (MTT), 4-3.6 cells", "assay_type": "cell-based, rat", "conditions": "˜48 hrs, zVAD 20 nM, conjugate 20 nM VAD equivalent, 1 nM 5C3", "experimental": "4-3.6 cells are placed in serum free media (SFM, PFHM-II, GIBCO, Toronto), where they undergo apoptosis (serum-withdrawal model).\nCells were then cultured for ˜48 hrs. Cell growth/survival was calculated relative to 5% serum (standardized to 100%)."}}}
{"molecule": "COc1cccc2c1C(=O)c1c(O)c3c(c(O)c1C2=O)C[C@@](O)(C(=O)CO)C[C@@H]3O[C@H]1C[C@H](N)[C@H](O)[C@H](C)O1", "note": "[Doxorubicin]", "values": [{"measurement": "IC50", "setting": "[1]", "result": "60 ± 2", "unit": "nM"}, {"measurement": "IC50", "setting": "[2]; Homo sapiens, KBV, 72 h, KB-V cells, 3 days, MTT, n = 3", "result": "> 320", "unit": "nM"}, {"measurement": "cytotoxicity on multidrug resistant cells", "setting": "[2]; KB-V compared to sensitive KB cells, with or without Verapamil", "result": "inactive on KB-V cells unless Verapamil was added"}, {"measurement": "cytotoxicity on cells that do not express IGF-IR", "setting": "[3]", "result": "dose-dependent cytotoxicity"}, {"measurement": "cytotoxicity under ligand competition", "setting": "[4]", "result": "same cytotoxicity whether excess of mlg or α-IR3 was present or not"}]}
{"molecule": "CC(=O)O[C@H]1C(=O)[C@@]2(C)[C@H]([C@H](OC(=O)c3ccccc3)[C@]3(O)C[C@H](OC(=O)[C@H](O)[C@@H](NC(=O)c4ccccc4)c4ccccc4)C(C)=C1C3(C)C)[C@]1(OC(C)=O)CO[C@@H]1C[C@@H]2O", "note": "[paclitaxel]", "values": [{"measurement": "efficacy in vivo at the dose effective for the conjugate", "setting": "[5]", "result": "not effective at this dose"}, {"measurement": "cytotoxic effect of a single exposure versus constant exposure", "setting": "[6]; 20 nM, after 72 and 96 hours of culture", "result": "significantly less effective than constant exposure"}, {"measurement": "cytotoxic effect, single exposure versus constant presence", "setting": "[6]; 30 minutes at 4° C. exposure, several concentrations, MTT 48, 72, 96 hr", "result": "generally the same whether the drug is present in the culture throughout or after a single exposure"}, {"measurement": "cytotoxicity under ligand competition", "setting": "[7]", "result": "same cytotoxicity whether or not 40 nM of mouse IgG or 40 nM of MC192 antibody were added"}, {"measurement": "cytotoxicity on cells that do not express p75", "setting": "[8]", "result": "dose-dependent cytotoxicity"}]}
{"molecule": "benzoic acid-Valine-Alanine-Aspartic acid-O-methyl-fluoromethylketone peptide [zVAD]", "values": [{"measurement": "4-3.6 Cell Survival (MTT, % of serum control)", "setting": "[9]", "result": "−2 ± 3 % of serum control"}]}
